Assay [1] has as its system cultured HUVEC, isolated cardiac myocytes, cultured cerebellar neurons. Nature of the assay: Zinc ionophore screening with Fura-2 loaded cells (fluorescence ratio 340/380 nm). Format: cell-based, human; rabbit; mouse. The note with it: for ionophore activity compared across cell types: HUVEC, cardiac myocytes, cerebellar neurons; for zinc ionophore activity (slope of Fura-2 fluorescence intensity ratio): zinc-complexed holo-ionophore, 1 μM in superfusion buffer, 37° C. As for the experimental part: Human umbilical vein endothelial cells (HUVEC) were purchased from Clonetics (San Diego, Calif.) and passages DeKeyser F. G. et al. (2000) Neuroimmunomodulation 7:182-188; Revilla V. et al. Brain Res. Bull 49:413-418; Troullos E. et al. (1997) Clin. Pharmacol. Ther. 62:74-81 were used for these studies. Cells were cultured on flame-sterilzed glass coverslips in Endothelial Basal Medium (Clonetics) supplemented with 10 ng/ml human recombinant epidermal growth factor, 1.0 ug/ml hydrocortisone, 50 ug/ml gentamicin, 50ng/ml amphotetericin B, 12 ug/ml bovine brain extract and 2% v/v fetal bovine serum (all from Clonetics), in a humidified chamber at 37° C. and 5% CO2. To maintain cell populations, proliferating HUVEC were passaged at 80-90% confluency.
Cardiac myocytes were isolated from the ventricular septum of adult rabbit hearts, following collagenase digestion, in a manner similar to that described previously (Turan, B. et al., (1997) Am. J. Physiol. 272:H2095-H2106). The modification consisted of introducing low concentrations of CaCl2 during the perfusion with collagenase and the dispersion of the myocytes. Hearts were perfused for about 2 min by gravity under a hydrostatic pressure of 1 m, with a nominally Ca^2+-free solution containing (in mM): NaCl, 145; KCl, 5; MgSO4, 1.2; Na2HPO4, 1.8; HEPES, 5; glucose, 10; pH adjusted to 7.4 with NaOH. Forty ml of this perfusate were then supplemented with collagenase (1 mg/ml) and perfusion was continued with recirculation. […] The flow rate was then adjusted to 15 ml/min and 50 μM CaCl2 was added to the collagenase solution. Perfusion with this solution was continued for another 15 to 18 min, followed by a 2 min washout of the enzyme with fresh perfusate containing 100 μM CaCl2 and no collagenase. The hearts were then removed from the apparatus and the ventricular septum isolated and minced. Dissociation of the cells was obtained by gentle agitation of the minced tissue in 50 ml of the same perfusing solution. Following filtration through a 200 μm nylon mesh, the cells were allowed to settle and the supernatant was replaced with a solution containing 2 mM CaCl2. Cells were kept at 37° C. in this pre-oxygenated solution and were studied within 8 hours after isolation, cellular viability was ensured by regularly replacing the incubation solution.
Primary cultures of mouse cerebellar granule neurons were obtained from dissociated cerebella of postnatal day 8 or 9 mice according to the following protocol (Cregan et al., (1999) J. Neurosci. 19:7860-7869, incorporated herein by reference). Brains were removed and placed into separate dishes containing solution A (124 mM NaCl, 5.37 mM KCl, 1 mM NaH2 P04, 1.2 mM MgSO4, 14.5 mM D-(1)-glucose, 25 mM HEPES, 3 mg/ml BSA, pH 7.4) in which the cerebella were dissected, meninges removed, and tissue sliced into small pieces. The tissue was briefly centrifuged and transferred to solution A containing 0.25 mg/ml trypsin, then incubated at 37° C. for 18 min. After the addition of 0.082 mg/ml trypsin inhibitor (Boehringer Mannheim, Indianapolis, Ind.) and 0.25 mg/ml DNase I (Boehringer Mannheim), the tissue was incubated at 25° C. for 2 min. After a brief centrifugation, the resulting pellet was gently titrated in solution A yielding suspension that was further incubated for 10 min at 25° C. in solution A containing 2.7 mM MgSO4 and 0.03 mM CaCl2. After a final centrifugation the pellet was resuspended in EMEM media (Sigma, St. Louis, Mo.) containing 10% dialyzed FBS (Sigma), 25 mM KCl, 2 mM glutamine (Life Technologies BRL, Gaithersburg, Md.), 25 mM glucose, and 0.1 mg/ml gentamycin (Sigma) and filtered through a cell strainer (size 70 μm; Falcon). Cells were plated on glass coverslips coated with poly-D-lysine (Sigma) in Nunc fourwell dishes at a density of 1.5×10^6 cells per milliliter of medium. Cytosine-arabinoside (10 μM; Sigma) was added 24 hr after plating.

Assay [2] has as its system NF-κB. As to the kind of experiment: NF-κB electrophoretic mobility shift assay on brain nuclear extracts, coronary artery ligation model. It is filed as in vivo, rat. The conditions noted are these: rats subjected to coronary occlusion 45 min, reperfusion 4 h; i.v. boluses at 0, 1, 2 h postreperfusion; ZnP 1.2 μg/kg, ZnDDC 8.3 ng/kg. As for the experimental part:
(§1) Coronary artery ligation model Male Sprague-Dawley rats (250-300 g) were anesthetized, intubated and ventilated. The chest was opened and the coronary artery was ligated. After 45 min, the suture was released and reperfusion was continued for 4 h. Boluses (0.5 ml) of the zinc ionophores ZnP (1.2 μg/kg) and ZnDDC (8.3 ng/kg) were administered intravenously in 4% DMSO in saline at 0, 1, and 2 h postreperfusion. After 4 h of reperfusion the ligature was retied, and Evans blue dye was infused intravenously to demarcate the area at risk. The rats were then killed by exsanguination and the brain was collected for analysis. Sham-surgery rats were treated in an identical manner but without tying the ligature around the coronary artery.
(§2) Brain samples were homogenized on ice using six slow strokes of a Teflon pestle homogenizer at 1000 rpm in 8 volumes of buffer containing 0.25 M sucrose, 10 mM HEPES, pH 7.6, 25 mM KCl, 1 mM EDTA, 10% glycerol, 0.15 mM spermine, and 0.5 mM spermidine. […] Protein concentrations were determined using the Bio Rad protein assay.
(§3) Double-stranded consensus oligonucleotides for NF-kB and Spl (Promega, Madison, Wis.) were 5 radiolabelled with g[^32P]ATP (Amersham, Arlington Heights, Ill.). […] The intensity of the bands was quantitated with a densitometer and commercially available software (Molecular Analyst, Bio-Rad Laboratories, Hercules, Calif.).

Assay [3] relates to Spl. As to the kind of experiment: Spl electrophoretic mobility shift assay on brain nuclear extracts, coronary artery ligation model. Format: in vivo, rat. The note with it: rats subjected to coronary occlusion 45 min, reperfusion 4 h; ZnDDC 8.3 ng/kg i.v. at 0, 1, 2 h postreperfusion. As for the experimental part:
as §1, §2, §3
(In general: A gel shift assay detects complexes by their altered migration in electrophoresis.)

Data on eight molecules can be found in patent US20020183300A1, “Zinc ionophores as anti-stress agents” (priority 2001, published 2002).

In the case of `Oc1c(I)cc(I)c2cccnc12` [5,7-Diiodo-8-hydroxyquinoline], in assay [1], the zinc-ionophore properties entry is “possess zinc-ionophore properties”, the “ionophore activity compared across cell types” value is “comparable in all three cell types tested” and the “zinc ionophore activity (slope of Fura-2 fluorescence intensity ratio)” value is reported as 5,7-Diiodo-8-hydroxyquinoline ✓✓.
On to `Oc1cccc2cccnc12` [8-Hydroxyquinoline], for which, in assay [1], the zinc-ionophore properties entry is given as “possess zinc-ionophore properties” and the “zinc ionophore activity (slope of Fura-2 fluorescence intensity ratio)” value was 8-Hydroxyquinoline, ✓.
In the case of `CCN(CC)C(=S)SSC(=S)N(CC)CC` [Disulfiram], the “zinc ionophore activity (slope of Fura-2 fluorescence intensity ratio)” value in assay [1] was “Disulfiram ✓✓”.
On the same count and under the same terms, with `COc1ccc2c(c1)c(CC(=O)O)c(C)n2C(=O)c1ccc(Cl)cc1` [Indomethacin] the entry was “Indomethacin ✓”.
The same measure, in the same setting: as for `S=C(S)N1CCCC1` [Pyrrolidinedithiocarbamate], the entry is “Pyrrolidinedithiocarbamate ✓✓”.
As for `CC1=C(/C=C/C(C)=C/C=C/C(C)=C/CO)C(C)(C)CCC1` [Vitamin A (all-trans-retinol), all-trans-retinol], in assay [1], the zinc-ionophore properties entry is on record as “possess zinc-ionophore properties” and the “zinc ionophore activity (slope of Fura-2 fluorescence intensity ratio)” value is listed as “Vitamin A (all-trans-retinol) ✓”.
On to `Cc1c(C)c2c(c(C)c1O)CC[C@@](C)(CCC[C@H](C)CCC[C@H](C)CCCC(C)C)O2` [Vitamin E, alpha-tocopherol], for which the zinc-ionophore properties entry in assay [1] was “possess zinc-ionophore properties”.
For `CCN(CC)C(=S)S` [ZNDDC, zinc-diethyldithiocarbamate], the “NF-κB binding activity in the brain” value in assay [2] is “restored normal NF-κB binding activity”. In assay [1], the zinc-ionophore properties entry was “possess zinc-ionophore properties”, the “ionophore activity compared across cell types” value is listed as “comparable in all three cell types tested” and the “zinc ionophore activity (slope of Fura-2 fluorescence intensity ratio)” value is “diethyldithiocarbamate ✓✓”. Further, the “Spl binding activity in the brain (in words)” value in assay [3] is “restored Spl binding activity to normal”.
